The values that follow come from ChEMBL document CHEMBL1143107 (Bioorg Med Chem, 2008).

The species named for test [1] is Homo sapiens. The test can be described thus: Ratio of IC50 for human COX1 to IC50 for human COX2.
For test [2], the species on record is Homo sapiens. The experiment in a line: Ratio of IC50 for human COX1 to IC50 for human COX2 in human whole blood. The format is tissue-based.
Test [3] deals with T1, Prostaglandin G/H synthase 2 (Homo sapiens, UniProt P35354).
T1 sequence (P35354 whole entry): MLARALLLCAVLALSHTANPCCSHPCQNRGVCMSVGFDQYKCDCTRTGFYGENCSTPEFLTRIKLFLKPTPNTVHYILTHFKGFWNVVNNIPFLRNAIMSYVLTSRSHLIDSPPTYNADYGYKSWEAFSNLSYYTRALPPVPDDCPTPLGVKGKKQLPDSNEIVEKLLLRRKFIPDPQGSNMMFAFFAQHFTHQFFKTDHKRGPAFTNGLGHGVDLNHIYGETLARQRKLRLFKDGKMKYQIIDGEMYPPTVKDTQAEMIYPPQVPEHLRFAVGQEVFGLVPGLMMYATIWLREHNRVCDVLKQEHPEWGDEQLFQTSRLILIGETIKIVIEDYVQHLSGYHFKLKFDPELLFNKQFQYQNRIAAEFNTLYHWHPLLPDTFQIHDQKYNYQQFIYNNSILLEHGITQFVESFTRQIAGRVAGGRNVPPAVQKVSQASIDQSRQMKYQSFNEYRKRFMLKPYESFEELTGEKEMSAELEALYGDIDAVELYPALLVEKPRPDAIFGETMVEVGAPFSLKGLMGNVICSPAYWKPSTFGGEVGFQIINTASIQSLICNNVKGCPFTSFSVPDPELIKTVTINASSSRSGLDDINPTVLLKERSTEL

The target in test [4] is T1, Prostaglandin G/H synthase 2. This is another data set of the same source.
Description: Inhibition of human COX2 in human whole blood

pIC50: −log10 of the molar value. Bounds are passed on as bounds.

On to `CS(=O)(=O)c1ccc(-c2nc(NC3CCCC3)cc(C(F)(F)F)n2)cc1`, for which the Ratio IC50 was above 522 in the test listed under Homo sapiens [1] and 80 in the test listed under Homo sapiens [2]. Further, the figures for the pIC50 in test [3] and in test [4] were 6.72 and 6.32, respectively.
In the same order, the values of `NS(=O)(=O)c1ccc(-c2nc(NCC3CCCCC3)cc(C(F)(F)F)n2)cc1` are above 140, above 124, 6.15 and 6.10.
In the same order, the values of `NS(=O)(=O)c1ccc(-c2nc(NCc3ccco3)cc(C(F)(F)F)n2)cc1` are above 6920, above 3, 7.84 and 5.55.
In the same order, the values of `NS(=O)(=O)c1ccc(-c2nc(NCc3csc4ccccc34)cc(C(F)(F)F)n2)cc1` are above 10, above 1, 5.00 and below 5.00.
`CS(=O)(=O)c1ccc(-c2nc(NCc3ccco3)cc(C(F)(F)F)n2)cc1`: the Ratio IC50 in the test listed under Homo sapiens [1] is above 498; in the test filed under Homo sapiens [2], above 497. Moreover, the results for the pIC50 in test [3] and in test [4] were 6.70 and 6.85, respectively.
Consider `NS(=O)(=O)c1ccc(-c2nc(NCc3ccccn3)cc(C(F)(F)F)n2)cc1`, for which the Ratio IC50 was above 33 in the test filed under Homo sapiens [1] and above 10 in the test filed under Homo sapiens [2]. Also, the results for the pIC50 in test [3] and in test [4] were 5.52 and below 5.00, respectively.
Regarding `CS(=O)(=O)c1ccc(-c2nc(NCc3cccnc3)cc(C(F)(F)F)n2)cc1`, the Ratio IC50 in the test listed under Homo sapiens [1] and in the test filed under Homo sapiens [2] was above 1 in each case. The pIC50 in test [3] and in test [4] was below 5.00 each time.
For the compound `CS(=O)(=O)c1ccc(-c2nc(NCc3ccc4ccccc4c3)cc(C(F)(F)F)n2)cc1`, the Ratio IC50 in the test listed under Homo sapiens [1] and in the test listed under Homo sapiens [2] was above 1 throughout. The pIC50 in test [3] and in test [4] was below 5.00 each time.
With `Cn1cccc1CNc1cc(C(F)(F)F)nc(-c2ccc(S(C)(=O)=O)cc2)n1`, the Ratio IC50 was above 562 in the test filed under Homo sapiens [1] and above 3470 in the test listed under Homo sapiens [2]. In addition, the pIC50 is 6.75 in test [3] and 7.54 in test [4].
For `NS(=O)(=O)c1ccc(-c2nc(NCc3cc4ccccc4s3)cc(C(F)(F)F)n2)cc1` the same measures were 6570, above 71, 7.82 and 6.85.
In the same order, the values of `NS(=O)(=O)c1ccc(-c2nc(NCc3ccccc3)cc(C(F)(F)F)n2)cc1` are above 25, above 5, 5.40 and below 5.00.
For `NS(=O)(=O)c1ccc(-c2nc(NCc3cccs3)cc(C(F)(F)F)n2)cc1` the same measures were 3530, above 634, 7.65 and 6.80.
For the compound `CS(=O)(=O)c1ccc(-c2nc(NCC3CC=CCC3)cc(C(F)(F)F)n2)cc1` (stereo not given), the Ratio IC50 in the test filed under Homo sapiens [1] was above 2320; in the test filed under Homo sapiens [2], above 304. The pIC50 is 7.37 in test [3] and 7.48 in test [4].
Take `CS(=O)(=O)c1ccc(-c2nc(NCc3nc4ccccc4[nH]3)cc(C(F)(F)F)n2)cc1`: the Ratio IC50 in the test listed under Homo sapiens [1] and in the test listed under Homo sapiens [2] was above 1 in each case. The pIC50 in test [3] and in test [4] was below 5.00 in each case.
With `CS(=O)(=O)c1ccc(-c2nc(NCC3CCCC3)cc(C(F)(F)F)n2)cc1`, the Ratio IC50 in the test listed under Homo sapiens [1] and in the test filed under Homo sapiens [2] was above 1 each time. Besides, the pIC50 in test [3] and in test [4] was below 5.00 in each case.

As a reminder, the pIC50 is the negative decadic logarithm of the IC50, by convention in mol/L.
